Experimental data: US9247759B2, “Identification of human T2R receptors that respond to bitter compounds that elicit the bitter taste in compositions, and the use thereof in assays to identify compounds that inhibit (block) bitter taste in compositions and use thereof” (SENOMYX, INC., priority 2007, dated 2016)
pIC50: −log10 of the molar value. Read-outs that look alike come from different tables or passages of the source.

Columns and labels:
hT2R8 [1] = target: T1, hT2R8 (Homo sapiens (Human), UniProt Q9NYW2); assay: hT2R8 antagonist high-throughput FLIPR assay, stable cell line with G16g44, agonist andrographolide; assay type: cell-based
T1 sequence (Q9NYW2 whole entry): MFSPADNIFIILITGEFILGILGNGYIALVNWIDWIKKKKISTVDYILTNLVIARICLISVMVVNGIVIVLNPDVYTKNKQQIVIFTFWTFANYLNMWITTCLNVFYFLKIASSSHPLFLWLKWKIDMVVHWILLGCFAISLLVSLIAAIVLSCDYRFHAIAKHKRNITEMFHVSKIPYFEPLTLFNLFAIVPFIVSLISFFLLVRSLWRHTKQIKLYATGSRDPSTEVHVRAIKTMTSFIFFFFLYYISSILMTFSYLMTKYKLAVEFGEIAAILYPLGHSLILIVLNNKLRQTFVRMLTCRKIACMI
Outline: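 Antagonist screen: compounds co-applied with agonist andrographolide at 200 μM, a dose giving 70–80% of maximal hT2R8 activation. Fluorescence measured by FLIPR in a stable HEK293 line expressing both hT2R8 and the promiscuous G16g44 protein.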

[2] = tested on: bitterness of T2R8 specific agonist; assay: Taste test with T2R8 specific agonist comparing a control bitter blocker and compound of interest; assay type: in vivo, human; details: antagonist conc. 1
Procedure: To determine the effectiveness of an individual antagonist, taste tests were performed with a T2R8 specific agonist, the compound of interest and a reference bitter blocker. We have previously described a good hT2R8 antagonist that was proven to have taste effect, Example 4-8 from U.S. Provisional Appl. Ser. No. 60/957,129, filed Aug. 21, 2007: N-(1-((3,5-dimethylisoxazol-4-yl)methyl)-1H-pyrazol-4-yl)benzo[d][1,3]dioxole-5-carboxamide.

[3] = tested on: bitter taste of instant coffee; assay: 2-alternative forced choice taste test, instant coffee with hT2R8 antagonists; assay type: in vivo, human; details: antagonist 5 μM
Procedure: Taste tests were performed with hT2R8 antagonists in instant coffee using a 2-alternative forced choice method with a taste panel of 15-20 panelists. Coffee samples with the antagonists were given to the taste panelists together with the same sample without antagonists, the panelists were asked to identify the bitterer sample within the pair.

hT2R8 [4] = target: T1, hT2R8; details: compared with taster hT2R43-W35 and hT2R44-W35 alleles, FIG. 6
Excerpt: FIG. 6 is a plot of receptor activity as a function of log of the saccharin concentration.
Pronin et al., Curr. Biol. 17: 1403-8 (2007). Five individuals with the “taster” alleles (hT2R43-W35 and/or hT2R44-W35) and five with the “non-taster” alleles (hT2R43-S35 and hT2R44-R35) were selected based on genotyping analysis. Each subject was presented with 6 pairs of solutions and asked to determine which of the samples in a pair tasted more bitter.

| Structure (SMILES) | pIC50 (hT2R8 [1]; Table 6, read-out: HTS assay IC50) | pIC50 (hT2R8 [1]; table after Example 10-97, read-out: hT2R8 IC50) | IC50 (hT2R8 [1]; unit uM, read-out: IC50 on hT2R08 bitter receptor) [µM] | Selected as more bitter: +other ([2]; sample with 10-10) | Selected as more bitter: 10-8 ([2]; sample with control blocker 10-8) | Selected as bitterer: With antagonists [3] | Selected as bitterer: Without antagonists [3] | responsiveness of hT2R8 to saccharin (hT2R8 [4]) |
| --- | --- | --- | --- | --- | --- | --- | --- | --- |
| Cc1noc(C)c1Cn1cc(N2C(=O)CN(Cc3cccc(O)c3)C2=O)cn1 [Example 10-10, 3-(1-((3,5-dimethylisoxazol-4-yl)methyl)-1H-pyrazol-4-yl)-1-(3-hydroxybenzyl)imidazolidine-2,4-dione] | 7.40 to 7.70 | 7.59 | 0.035 | 2 | 14 | 2 | 14 |  |
| O=C1NS(=O)(=O)c2ccccc21 [saccharin] |  |  |  |  |  |  |  | less responsive |
